Results taken from ChEMBL document CHEMBL2434883, “Novel heterocyclic-fused pyrimidine derivatives: synthesis, molecular modeling and pharmacological screening” (Eur J Med Chem, 2013).
In brackets after ≈: the same amount, converted by molar mass.

Columns and labels:
MCF7 = assay: Cytotoxicity against human MCF7 cells after 48 hrs by SRB assay; assay type: functional, cell-based; details: MCF7, 48 h
[1] = target: Proto-oncogene tyrosine-protein kinase Src (Homo sapiens) (UniProt P12931); assay: Inhibition of c-Src (unknown origin) using [33P]-ATP as substrate at 10 uM after 30 mins by scintillation counting analysis relative to control
Proto-oncogene tyrosine-protein kinase Src (Homo sapiens), sequence (P12931 2-536 limits assumed): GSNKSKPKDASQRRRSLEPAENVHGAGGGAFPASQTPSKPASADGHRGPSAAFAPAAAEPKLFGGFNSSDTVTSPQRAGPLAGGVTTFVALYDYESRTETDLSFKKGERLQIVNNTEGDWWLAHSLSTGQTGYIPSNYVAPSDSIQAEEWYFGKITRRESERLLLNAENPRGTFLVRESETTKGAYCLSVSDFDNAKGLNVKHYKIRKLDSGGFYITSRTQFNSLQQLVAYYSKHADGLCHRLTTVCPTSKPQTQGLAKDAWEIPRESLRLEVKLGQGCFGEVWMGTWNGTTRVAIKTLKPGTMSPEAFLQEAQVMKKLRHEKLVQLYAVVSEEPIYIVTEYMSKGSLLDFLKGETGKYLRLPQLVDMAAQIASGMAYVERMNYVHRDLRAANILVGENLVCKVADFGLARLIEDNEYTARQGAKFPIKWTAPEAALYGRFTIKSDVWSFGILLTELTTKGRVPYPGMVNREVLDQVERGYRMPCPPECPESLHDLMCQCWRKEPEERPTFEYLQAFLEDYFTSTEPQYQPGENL

Homo sapiens = species: Homo sapiens; assay: Inhibition of VEGFR (unknown origin) using [33P]-ATP as substrate at 10 uM after 30 mins by scintillation counting analysis relative to control

| SMILES | IC50 (MCF7) | inhibition [1] | inhibition (Homo sapiens) |
| --- | --- | --- | --- |
| O=C1N(c2ccccc2)c2nc[nH]c(=O)c2C2CCCN12 (stereo not given) | 14.8 µg/mL (≈ 52.4 µM) |  |  |
| Cc1ccc(NC(=O)CNC2=C(C#N)C3CCCN3C(=O)N2c2ccccc2)cc1 (stereo not given) | 21.6 µg/mL (≈ 53.8 µM) |  |  |
| N#CC1=C(NC(=S)Nc2ccccc2)N(c2ccccc2)C(=O)N2CCCC12 (stereo not given) | 16.6 µg/mL (≈ 42.6 µM) |  |  |
| N#CC1=C(NC(=O)Nc2ccccc2)N(c2ccccc2)C(=O)N2CCCC12 (stereo not given) | 19.8 µg/mL (≈ 53 µM) |  |  |
| NNc1ncnc2c1C1CCCN1C(=O)N2c1ccccc1 (stereo not given) | 11 µg/mL (≈ 37.1 µM) |  |  |
| O=C1N(c2ccccc2)c2[nH]c(=S)sc(=O)c2C2CCCN12 (stereo not given) | 17 µg/mL (≈ 51.3 µM) |  |  |
| N#CC1=C(NC(=S)Nc2ccccc2)NC(=S)N2CCCC12 (stereo not given) | 20.8 µg/mL (≈ 63.1 µM) |  |  |
| Cc1ccc(NC(=O)CNC2=C(C#N)C3CCCN3C(=S)N2c2ccccc2)cc1 (stereo not given) | 12.8 µg/mL (≈ 30.7 µM) |  |  |
| Nc1nc(=S)[nH]c2c1C1CCCCCN1C(=O)N2c1ccccc1 (stereo not given) | 10.8 µg/mL (≈ 31.6 µM) |  |  |
| O=c1[nH]cnc2c1C1CCCN1C(=S)N2c1ccccc1 (stereo not given) | 20 µg/mL (≈ 67 µM) |  |  |
| Nc1nc(=S)[nH]c2c1C1CCCN1C(=S)N2c1ccccc1 (stereo not given) | 22.8 µg/mL (≈ 69.2 µM) |  |  |
| N#CC1=C(NC(=O)Nc2ccccc2)N(c2ccccc2)C(=S)N2CCCC12 (stereo not given) | 14.2 µg/mL (≈ 36.5 µM) |  |  |
| N=c1c2c([nH]c(=O)n1-c1ccccc1)N(c1ccccc1)C(=O)N1CCCC21 (stereo not given) | 9.6 µg/mL (≈ 25.7 µM) | 0% | 11% |
| O=C1N(c2ccccc2)c2[nH]c(=S)nc(/N=C/c3ccc(Cl)cc3)c2C2CCCN12 (stereo not given) | 12.4 µg/mL (≈ 28.4 µM) |  |  |
| N#CC1=C(N2C(=O)CN(c3ccccc3)C2=O)N(c2ccccc2)C(=O)N2CCCC12 (stereo not given) | 18.6 µg/mL (≈ 45 µM) |  |  |
| O=C1N(c2ccccc2)c2[nH]c(=S)nc(/N=C/c3ccc(Cl)cc3)c2C2CCCCCN12 (stereo not given) | 10.6 µg/mL (≈ 22.8 µM) |  |  |
| O=c1sc(=S)[nH]c2c1C1CCCN1C(=S)N2c1ccccc1 (stereo not given) | 18.8 µg/mL (≈ 54.1 µM) |  |  |
| N#CCC(=O)NC1=C(C#N)C2CCCN2C(=O)N1c1ccccc1 (stereo not given) | 12.8 µg/mL (≈ 39.8 µM) | 0% | 0% |
| O=C1N(c2ccccc2)c2[nH]c(=S)sc(=O)c2C2CCCCCN12 (stereo not given) | 14 µg/mL (≈ 38.9 µM) |  |  |
| O=C1N(c2ccccc2)c2nc[nH]c(=O)c2C2CCCCCN12 (stereo not given) | 11.2 µg/mL (≈ 36.1 µM) | 81% | 3% |
| N#CC1=C(N2C(=O)C(=O)N(c3ccccc3)C2=O)N(c2ccccc2)C(=O)N2CCCC12 (stereo not given) | 10.8 µg/mL (≈ 25.3 µM) | 45% | 25% |
| Nc1nc(=S)[nH]c2c1C1CCCN1C(=O)N2c1ccccc1 (stereo not given) | 13.6 µg/mL (≈ 43.4 µM) |  |  |
